Measurements taken from patent US12642794B2, “Dose regimens for use of LY3154207 in the treatment of dopaminergic CNS disorders” (Eli Lilly and Company, priority 2018, dated 2026).

Test system: healthy subjects
Test: HBEC Part A multiple ascending dose study: TEAEs, vital signs, tolerability
Format: in vivo, human
Method: FIG. 3: Design of the study HBEC, a multiple ascending dose study of LY3154207, a randomized, double-blind, placebo-controlled, multiple ascending dose, parallel-group study, of healthy subjects (Part A) and participants with PD (Part B) who received once-daily doses of LY3154207 (15, 30, 75, or 150 mg in Part A and up to 75 mg in Part B) or placebo for 14 days. aEach ascending dose cohort commenced only after review of the safety data to at least Day 7 from the previous cohort. bParticipants with PD in Cohort 6 received titrated doses to determine the effect of this dosing schedule (i.e., Days 1-3:15 mg: Days 4-6:30 mg; and Days 7-14:75 mg) on cardiovascular effects. Note: All cohorts were dosed for 14 days. CRU=clinical research unit: LY=LY3154207; PBO=placebo: PD=Parkinson's disease: R=randomized.
In this randomized, double-blind, placebo-controlled, multiple ascending dose, parallel-group study, HBEC, healthy subjects (Part A) and participants with PD (Part B) received once-daily doses of LY3154207 (15, 30, 75, or 150 mg in Part A and up to 75 mg in Part B) or placebo for 14 days, as illustrated in FIG. 3.
Study outcomes included 24-hour ambulatory blood pressure monitoring (ABPM), treatment-emergent adverse events (TEAEs), and PK assessments in both healthy subjects and participants with PD, as well as Movement Disorder Society-United Parkinson's Disease Rating Scale (MDS-UPDRS) assessments to evaluate the impact of LY3154207 on motor function in participants with PD. The objective was to explore the safety, tolerability, and pharmacokinetics (PK) of multiple oral daily dosing of LY3154207 in healthy subjects (Part A) and in participants with PD (Part B).

[1] = healthy subjects, LY 15 mg once daily for 14 days (N = 9)
[2] = healthy subjects, LY 30 mg once daily for 14 days (N = 9)
[3] = healthy subjects, LY 75 mg once daily for 14 days (N = 9)
[4] = healthy subjects, LY 150 mg once daily for 14 days (N = 9)
[5] = healthy subjects, primarily at the 150 mg dose

`C[C@H]1c2cccc(CCC(C)(C)O)c2C[C@H](CO)N1C(=O)Cc1c(Cl)cccc1Cl` [LY3154207] was tested, and the “incidence of TEAEs following multiple dosing” value (healthy subjects) was “dose-dependent increase”, the “severe or serious TEAEs” value (healthy subjects) was “no severe or serious TEAEs” and the “Number of TEAEs” value [1] was 6. For the same compound, the “Number of TEAEs, Mild” value [1] was 6, the “Number of TEAEs, Moderate” value [1] was 0 and the “Subjects with ≥1 TEAE, (%)” value [1] was “(44.4) %”. For the same compound, the “Number of TEAEs” value [2] was 5, the “Number of TEAEs, Mild” value [2] was 5 and the “Number of TEAEs, Moderate” value [2] was 0. For the same compound, the “Subjects with ≥1 TEAE, (%)” value [2] was “(55.6) %”, the “Number of TEAEs” value [3] was 6 and the “Number of TEAEs, Mild” value [3] was 6. For the same compound, the “Number of TEAEs, Moderate” value [3] was 0, the “Subjects with ≥1 TEAE, (%)” value [3] was “(33.3) %” and the “Number of TEAEs” value [4] was 35. For the same compound, the “Number of TEAEs, Mild” value [4] was 35, the “Number of TEAEs, Moderate” value [4] was 0 and the “Subjects with ≥1 TEAE, (%)” value [4] was “(88.9) %”. For the same compound, the “dizziness, treatment-related AE” value [5] was 3 n, the “insomnia, treatment-related AE” value [5] was 4 n and the “nausea, treatment-related AE” value [5] was 2 n. For the same compound, the “nervousness, treatment-related AE” value [5] was 3 n, the “palpitations, treatment-related AE” value [5] was 3 n and the “course of the initial increase in SBP, DBP, and pulse rate” value (healthy subjects, repeated dosing) was “showed accommodation with repeated dosing”. The “tolerability of multiple once-daily doses” value (up to 150 mg in healthy subjects) was “well tolerated”.
